Experimental findings from ChEMBL document CHEMBL4483862, “Open-source discovery of chemical leads for next-generation chemoprotective antimalarials” (2018) are described below.

SMILES strings stand for the structures.

This experiment deals with Plasmodium berghei. Put plainly: Luciferase/luciferin-expressing antifolate-resistant parasites were used to infect a culture of HepG2 cells that were pre-incubated with compounds. Infected hepatocytes emit light due to the luciferase reaction. Assay results are presented as the percent inhibition of light emission compared to control. […]. It counts as functional. The conditions noted are these: sporozoite; for IC90: read-out: LUCIFERASE INFECTION ASSAY - IC90.

The mark [1] stands for this setting: read-out: LUCIFERASE INFECTION ASSAY - IC50.

As to `COc1ccc2nc(C(=O)NNC(=O)c3cc(C)oc3C)ccc2c1`, the IC90 was > 10 µM. In addition, under “HEPG2TOX_HILL_SLOPE 10.5, HEPG2TOX_R_SQUARED 0.205, PBLUC_HILL_SLOPE 2.55, PBLUC_R_SQUARED 0.459, read-out: LUCIFERASE INFECTION ASSAY - IC50”, the IC50 came to 6.67 µM.
Take `Cc1ccccc1NC(=O)c1cc2ccccc2c(CN2CCC3(CC2)OCCO3)c1O`: the IC90 was found to be 1.28 µM. Besides, the IC50 (FFLUC_HILL_SLOPE 10.9, FFLUC_R_SQUARED 0.858, HEPG2TOX_HILL_SLOPE 2.82, HEPG2TOX_R_SQUARED 0.87, PBLUC_HILL_SLOPE 1.78, PBLUC_R_SQUARED 0.84, read-out: LUCIFERASE INFECTION ASSAY - IC50) was 0.373 µM.
Turning to `Cc1ccc(N/N=C/c2c3ccccc3cc3ccccc23)cc1Cl`, the IC90 came to 5.87 µM. Further, the IC50 (HEPG2TOX_HILL_SLOPE 1.41, HEPG2TOX_R_SQUARED 0.742, PBLUC_HILL_SLOPE 1.25, PBLUC_R_SQUARED 0.657, read-out: LUCIFERASE INFECTION ASSAY - IC50) was determined as 1.01 µM.
For `FC(F)(F)c1cccc(Nc2cc3[nH]c(-c4ccccn4)cc3cn2)c1`, the IC90 is > 10 µM. Also, the IC50 (HEPG2TOX_HILL_SLOPE 12.3, HEPG2TOX_R_SQUARED 0.757, PBLUC_HILL_SLOPE 15.4, PBLUC_R_SQUARED 0.209, read-out: LUCIFERASE INFECTION ASSAY - IC50) is 9.04 µM.
As for `COc1ccc(Cl)cc1NC(=O)CN(C)c1nc(-c2cccnc2)nc2sc3c(c12)CCCC3`, the IC90 is > 10 µM. Under setting [1], the IC50 is > 10 µM.
Consider `C/C(=N\NC(=O)c1ccc(C(F)(F)F)cc1)c1ccccc1O`, for which the IC90 was 3.38 µM. For the same compound, the concentration for half-maximal inhibition (IC50) (HEPG2TOX_HILL_SLOPE 0.838, HEPG2TOX_R_SQUARED 0.996, PBLUC_HILL_SLOPE 3.61, PBLUC_R_SQUARED 0.312, read-out: LUCIFERASE INFECTION ASSAY - IC50) was found to be 1.84 µM.
As to `COc1ccc(-c2ccc3c(c2)COC2(CCN(C(=O)c4cc(F)ccc4C)CC2)O3)cc1OC`, the concentration for an effect of 90% (IC90) is > 6.91 µM. Besides, the IC50 under setting [1] was > 6.91 µM.
In the case of `Cc1nc(COc2ccc(Cl)cc2)sc1C(=O)OC(C)C(=O)N1CCCC1` (configuration not stated), the IC90 is > 10 µM. Further, for the setting “PBLUC_HILL_SLOPE 2.47, PBLUC_R_SQUARED 0.699, read-out: LUCIFERASE INFECTION ASSAY - IC50”, the IC50 was 4.52 µM.
As for `CCn1c2ccccc2c2cc(NC(=O)COC(=O)CCNS(=O)(=O)c3cccc(C)c3)ccc21`, the IC90 is > 10 µM. Also, where the note is “FFLUC_HILL_SLOPE 22.4, FFLUC_R_SQUARED 0.497, HEPG2TOX_HILL_SLOPE 9.12, HEPG2TOX_R_SQUARED 0.733, read-out: LUCIFERASE INFECTION ASSAY - IC50”, the IC50 is > 10 µM.
As for `O=C1N=C(N2CCCCC2)S/C1=C(/C=C(CC(=O)c1ccccc1)c1ccccc1)c1ccccc1`, the IC90 was > 6.7 µM. For the same compound, under setting [1], the IC50 was > 6.7 µM.
For `CC(C)(C)c1ccccc1NC(=O)Nc1nc(C(N)Cc2ccccc2)cs1` (configuration not stated), the IC90 was 7.79 µM. The IC50 under setting [1] was determined as 4.59 µM.
With `CC(C)(C)C(=O)Nc1ccc(-c2csc(-n3nccc3C(F)(F)F)n2)cc1`, the IC90 is > 10 µM. Also, the IC50 (PBLUC_HILL_SLOPE 6.43, PBLUC_R_SQUARED 0.126, read-out: LUCIFERASE INFECTION ASSAY - IC50) turned out to be 8.51 µM.
`C=CCNc1nc2cc(-c3ccccc3C)sc2c(=O)n1C`: the IC90 is > 10.6 µM. Also, the IC50 (HEPG2TOX_HILL_SLOPE 8.49, HEPG2TOX_R_SQUARED 0.617, read-out: LUCIFERASE INFECTION ASSAY - IC50) was > 10.6 µM.
`Cc1nn(-c2ccc(F)cc2)c(C)c1/C=C/C(=O)OCC(=O)Nc1cc(S(=O)(=O)N2CCOCC2)ccc1Cl`: the IC90 was > 10 µM. Under setting [1], the IC50 was > 10 µM.
On to `COc1ccc(Oc2ccc(/C=C/C(=O)c3ccc(N4CCN(C)CC4)cc3)cc2[N+](=O)[O-])cc1`, for which the IC90 was 4.34 µM. The IC50 (HEPG2TOX_HILL_SLOPE 14.7, HEPG2TOX_R_SQUARED 0.729, PBLUC_HILL_SLOPE 20.7, PBLUC_R_SQUARED 0.331, read-out: LUCIFERASE INFECTION ASSAY - IC50) worked out at 3.9 µM.
As for `CO/N=C1\CCCc2c(C(=O)N/N=C/c3ccccc3Cl)sc(SC)c21`, the IC90 came to 1.81 µM. The IC50 (FFLUC_HILL_SLOPE 19.7, FFLUC_R_SQUARED 0.147, HEPG2TOX_HILL_SLOPE 0.857, HEPG2TOX_R_SQUARED 0.906, PBLUC_HILL_SLOPE 1.47, PBLUC_R_SQUARED 0.897, read-out: LUCIFERASE INFECTION ASSAY - IC50) worked out at 0.406 µM.
As to `CN(C)c1ccc(-c2cc3c(cn2)nc(NCc2ccccc2)n3C)cc1`, the IC90 is > 10 µM. The IC50 under setting [1] is > 10 µM.
For the compound `CCNC(=O)N1CCc2nc(NCc3cccc(Oc4ccccc4)c3)ncc2C1`, the IC90 came to 3.94 µM. Also, the IC50 (HEPG2TOX_HILL_SLOPE 10.3, HEPG2TOX_R_SQUARED 0.577, PBLUC_HILL_SLOPE 136, PBLUC_R_SQUARED 0.208, read-out: LUCIFERASE INFECTION ASSAY - IC50) was 3.87 µM.
For the compound `Cc1cc(C(=O)NC2CCN(c3ncnc4sc5c(c34)CCCC5)CC2)on1`, the IC90 was > 10 µM. The IC50 under setting [1] was > 10 µM.
Take `COc1ccc(N2C(=O)/C(=C\NC3CCCCC3C)c3ccccc3C2=O)cc1OC` (configuration not stated): the IC90 is > 10 µM. For the same compound, the IC50 under setting [1] is > 10 µM.
In the case of `Cc1ccc(O)c(-c2cc(-c3ccccc3)c3ccccc3n2)c1`, the IC90 was > 10 µM. For the same compound, the IC50 under setting [1] was > 10 µM.
For `CCOC(=O)c1sc(SCc2ccc(Cl)cc2)c2c1CCCC2=O`, the IC90 was > 8.66 µM. Further, the IC50 (FFLUC_HILL_SLOPE 175, FFLUC_R_SQUARED 0.438, PBLUC_HILL_SLOPE 6.18, PBLUC_R_SQUARED 0.111, read-out: LUCIFERASE INFECTION ASSAY - IC50) was > 8.66 µM.
For the compound `NC(=S)COc1cc(Cl)cc(Cl)c1`, the IC90 was > 14 µM. Besides, the IC50 (HEPG2TOX_HILL_SLOPE 8.05, HEPG2TOX_R_SQUARED 0.893, PBLUC_HILL_SLOPE 16, PBLUC_R_SQUARED 0.105, read-out: LUCIFERASE INFECTION ASSAY - IC50) came to 13.4 µM.
With `Cc1cccc(OCCCC(=O)Nc2cc(C)n[nH]2)c1`, the IC90 came out at 1.35 µM. Besides, the IC50 (HEPG2TOX_HILL_SLOPE 2.94, HEPG2TOX_R_SQUARED 0.896, PBLUC_HILL_SLOPE 6.3, PBLUC_R_SQUARED 0.571, read-out: LUCIFERASE INFECTION ASSAY - IC50) turned out to be 0.951 µM.
In the case of `FC(F)(F)c1ccc2nc(SCc3c(Cl)cccc3Cl)[nH]c2c1`, the IC90 was > 7.98 µM. Further, the IC50 under setting [1] was > 7.98 µM.
For `Clc1ccc(-c2csc3ncnc(Sc4nnnn4C4CC4)c23)cc1`, the IC90 is > 10 µM. For the same compound, the IC50 (HEPG2TOX_HILL_SLOPE 2.99, HEPG2TOX_R_SQUARED 0.963, PBLUC_HILL_SLOPE 2.19, PBLUC_R_SQUARED 0.132, read-out: LUCIFERASE INFECTION ASSAY - IC50) came to 8.41 µM.
In the case of `O=C(NCc1ccccc1OC1CCCC1)Nc1nnc(C2CC2)s1`, the IC90 is 7.55 µM. In addition, the IC50 (HEPG2TOX_HILL_SLOPE 1.24, HEPG2TOX_R_SQUARED 0.927, PBLUC_HILL_SLOPE 4.07, PBLUC_R_SQUARED 0.516, read-out: LUCIFERASE INFECTION ASSAY - IC50) was 4.4 µM.
With `COc1cc(/C=N/NC(=O)c2ccccc2NS(=O)(=O)c2cccs2)ccc1OCCC(C)C`, the IC90 is 1.06 µM. The IC50 (PBLUC_HILL_SLOPE 1.78, PBLUC_R_SQUARED 0.852, read-out: LUCIFERASE INFECTION ASSAY - IC50) was determined as 0.307 µM.
For `O=C(Nc1ccc(F)cc1)Nc1cnn(-c2ccc(Cl)cc2)c1C(F)(F)F`, the IC90 came out at 2.1 µM. Also, the IC50 (PBLUC_HILL_SLOPE 1.06, PBLUC_R_SQUARED 0.652, read-out: LUCIFERASE INFECTION ASSAY - IC50) was found to be 0.266 µM.
As to `COc1ccc(S(=O)(=O)N(C)C)cc1NC(=O)CSc1cc(C)c2ccccc2n1`, the IC90 was > 10 µM. Moreover, the IC50 under setting [1] was > 10 µM.
As to `O=C(CCc1ccco1)Nc1ccc(-n2nccn2)cc1`, the IC90 is > 10 µM. Further, the IC50 (HEPG2TOX_HILL_SLOPE 10.3, HEPG2TOX_R_SQUARED 0.943, PBLUC_HILL_SLOPE 1.03, PBLUC_R_SQUARED 0.655, read-out: LUCIFERASE INFECTION ASSAY - IC50) was 4.85 µM.
On to `Cc1ccc(-n2nc(-c3ccc(OC(F)(F)F)cc3)cc2NC(=O)Nc2ccc(OC(F)(F)F)cc2)cc1C`, for which the IC90 was > 6 µM. For the same compound, under “FFLUC_HILL_SLOPE 0.93, FFLUC_R_SQUARED 0.122, PBLUC_HILL_SLOPE 17.9, PBLUC_R_SQUARED 0.245, read-out: LUCIFERASE INFECTION ASSAY - IC50”, the IC50 was 5.99 µM.
In the case of `N#Cc1ccc(C#CCOC(=O)c2ccc(Cl)cc2)cc1`, the IC90 was > 11.2 µM. Besides, the IC50 (HEPG2TOX_HILL_SLOPE 9.79, HEPG2TOX_R_SQUARED 0.928, PBLUC_HILL_SLOPE 1.7, PBLUC_R_SQUARED 0.764, read-out: LUCIFERASE INFECTION ASSAY - IC50) was 3.56 µM.
As for `CN1CCN(c2ccc(NC(=O)c3c[nH]c4ccc(Br)cc34)cn2)CC1`, the IC90 was > 10 µM. Where the note is “PBLUC_HILL_SLOPE 3.31, PBLUC_R_SQUARED 0.596, read-out: LUCIFERASE INFECTION ASSAY - IC50”, the IC50 turned out to be 8.19 µM.
Regarding `COc1ccc(/C(C)=N/NC(=O)c2sc3ccccc3c2Cl)c(O)c1`, the IC90 was 3.29 µM. Also, the 50% inhibitory concentration (IC50) (HEPG2TOX_HILL_SLOPE 4.02, HEPG2TOX_R_SQUARED 0.607, PBLUC_HILL_SLOPE 31, PBLUC_R_SQUARED 0.396, read-out: LUCIFERASE INFECTION ASSAY - IC50) was determined as 3.06 µM.
Take `O=C(Nc1ccc(Oc2ccc(OC(F)(F)F)cc2)cc1)C1CC1`: the IC90 worked out at 1.54 µM. Also, the IC50 (PBLUC_HILL_SLOPE 2.12, PBLUC_R_SQUARED 0.759, read-out: LUCIFERASE INFECTION ASSAY - IC50) was found to be 0.548 µM.

A word on the IC50: it is the concentration at which inhibition is half-maximal. For orientation: IC90 means the point of the concentration-response curve where the effect stands at 90%.
